# From a melting point compilation (Tetko et al.)
row,Compound,melting point [°C]
1,CC(O)C(O)(c1ccccc1)c1ccccc1 (centres undefined),92
2,COC1=C/C(=N\O)C2(C)CCC1C2(C)C (centres undefined),185
3,O=C1OC(=O)C2CCCCC12 (centres undefined),32
4,C=C1C(=O)OC2CC3(C)CCCC(C)C3=CC12 (centres undefined),76
5,Cc1cc(O)nc(O)c1,197
6,CN(N=O)C(N)=O,121
7,CC(C)(O)C(Cl)(Cl)Cl,97
8,CCOC(=O)NC(=O)CCl,127 to 131
9,CC(CO)c1c(O)c(O)c2c(c1O)C(=O)C(=O)C1C(C)(C)CCCC21C (centres undefined),239
10,CCN(C(=O)N(CC)c1ccccc1)c1ccccc1,79
11,CCCCCC1CCCC1,-83
12,Cc1cc(C(F)(F)F)n2nc(N)c(/N=N/c3c(Cl)cc(Cl)cc3Cl)c2n1,189
13,Cc1ncc([N+](=O)[O-])n1CC(O)CCl (centres undefined),77.5
14,O=C(Nc1ccc(Cl)cc1C(O)c1ccccc1)c1ccncc1 (centres undefined),211
15,CCOC(=O)Cc1ccc(N)cc1,48 to 50
16,CC1C(=O)C23C(O)CC4C(C)(C)CCC(O)C4(C)C2C(O)CC1C3O (centres undefined),282
17,c1ccc(-c2nc(-c3ccccn3)nc(-c3ccccn3)n2)nc1,250
18,COc1cccc(C=C[N+](=O)[O-])c1OC,83 to 85
19,CNC(=O)Oc1ccc2c(c1)C1(C)CCOC1N2C (centres undefined),124
20,Cc1cc(Br)cc(N)c1N,63 to 64
21,C[C@H](N)C(=O)O,314 to 316

row,Compound,melting point [°C]
1,O=C(NCCCBr)c1cc([N+](=O)[O-])cc([N+](=O)[O-])c1,195
2,NNC(=O)c1csc(CS(=O)(=O)c2ccc(Cl)cc2)n1,206 to 207
3,COc1cc2c(cc1O)C(C)=NCC2,182 to 185
4,CC(C)[C@H](N)C(O)(c1ccccc1)c1ccccc1,92
5,CCC(C(=O)O)c1ccc(N2Cc3ccccc3C2=O)cc1 (centres undefined),183
6,Nc1ncnc2c1ncn2C1OC(CO)CC1O (centres undefined),226
7,NS(=O)(=O)c1ccc(SCCO)c(F)c1,110
8,COc1cc(C)c(C(O)C#N)cc1OC (centres undefined),80
9,CCC(=O)Nc1c(C(=O)Cc2c(C)cc(C)cc2C)oc2ccccc12,147 to 148
10,CCOC(=O)C=C1SC(N2CCCCC2)C(=O)N1C (centres undefined),140
11,CC1(C)[C@H](C(=O)OC(C#N)c2cccc(Oc3ccccc3)c2)[C@@H]1C=C(Cl)Cl (some centres undefined),79
12,CN(C)c1ccc(C=CC#N)cc1,165 to 168
13,NNC(N)=O,96
14,Nc1ccc(SC(F)(F)F)c(Cl)c1,43
15,COc1ccc2[nH]c3c(c2c1)CCNC3C (centres undefined),150
16,O=[N+]([O-])c1cccnc1Oc1ccc(F)cc1F,63 to 65
17,CCOC(=O)c1nn(-c2ccc(C)cc2)c(C)c1C(=O)C1=NOC2C(=O)N(c3ccc(Br)cc3)C(=O)C12 (centres undefined),238
18,C=C(C)C1CCC2(CO)CCC3(C)C(CCC4C5(C)CCC(O)C(C)(C)C5CCC43C)C12 (centres undefined),250
19,FC(F)(F)CBr,-93.9
20,CC(CC(=O)O)CC(C)(C)C (centres undefined),-70
21,CCOC(=O)Nc1cccc(OC(=O)Nc2ccccc2)c1,120

row,Compound,melting point [°C]
1,CN(c1c(F)c(F)c(F)c(F)c1F)N(O)O,39.5
2,Cc1ccc2nc(C)c(C)nc2c1,93
3,COc1ccc(C2CNC(=O)C2)cc1OC1CCCC1 (centres undefined),127 to 133
4,CC12CCC(/C(=C/N(O)c3ccccc3)C1=O)C2(C)C (centres undefined),106 to 107
5,CCNCC(O)c1cccc(O)c1 (centres undefined),148
6,CN(C(=O)C(F)(F)C(F)(F)C(F)(F)C(F)(F)C(F)(F)C(F)(F)C(F)(F)C(F)(F)F)C1CCCCC1,57
7,O=S(=O)(O)CCN(CCO)CCO,152 to 154
8,CC12CCC3C4CCC(=O)C=C4CCC3C1CCC2OC(=O)CCc1ccccc1 (centres undefined),118
9,O=C(CC(=O)c1cc(Br)ccc1O)c1ccccc1,100 to 103
10,Brc1ccc2nsnc2c1,59 to 60
11,ClCc1cc(-c2cccs2)on1,32 to 34
12,Clc1cc(Cl)c(OCC#CI)cc1Cl,114
13,N#Cc1ccc(Cl)cc1N,161
14,Cn1c(=O)c(C2=NNC(=O)C2=CNc2cccnc2)c(O)c2ccccc21,281
15,NC(=O)NN=CC(=O)c1cc(C(=O)C=NNC(N)=O)cc(C(=O)C=NNC(N)=O)c1,> 300
16,CC(=O)Oc1ccc(C(C)=O)c(O)c1,57 to 59
17,CCNC(=O)CC#N,73 to 74
18,C=C(C)C1CCC(C)CC1O (centres undefined),78
19,N#Cc1cccc(-c2cccs2)c1,58 to 60

# Second part, the molecule after the results:
row,melting point [°C],Compound
1,144,CC(=O)Oc1cccc(N=Nc2cccc(OC(C)=O)c2)c1
2,91,CCOC(=O)C1C(c2ccccc2O)C(C(=O)OCC)C(O)(C(F)(F)F)NC1(O)C(F)(F)F (centres undefined)
3,-53,C[Si](C)(Cl)O[Si](C)(C)O[Si](C)(C)Cl
4,164,N#C/C(=C/c1cccnc1)c1nc(-c2ccccc2)cs1
5,128,O=C(O)CNc1ccccc1
6,137 to 138,C[C@]12CCC(=O)C[C@@H]1CCC1=C2CC[C@@H]2C(=O)CC[C@H]12
7,134,CCCCCCCCCCCCOc1ccc(C(=O)O)cc1
8,-113,C#CC(=C)C
9,181 to 184,CC(=O)c1cc2cc3c4c(c2oc1=O)CCCN4CCC3
10,26 to 28,CC(=O)c1cccc(N=C=S)c1
11,138 to 140,NS(=O)(=O)C=Cc1ccccc1
12,161 to 164,NC(CSc1ncccc1C(F)(F)F)=NO
13,240 to 243,COc1ccc(C(=O)Nc2ccc(-c3ccc4nn(-c5ccccc5)nc4c3)cc2)cc1
14,48 to 51,O=C(Cl)c1cc(-c2ccccc2)c(C(F)(F)F)s1
15,120,Cc1cccnc1C(N)=S
16,-20,C=C(C)c1ccc(C)cc1
17,50 to 51,Fc1cc(Br)cc(Br)c1N=C=S
18,218,CCCCC(=O)OC1(C(=O)CO)CCC2C3CCC4=CC(=O)CCC4(C)C3C(O)CC21C (centres undefined)
19,45.5,CCCCNCC(=O)Nc1c(C)cccc1Cl
20,195,NCCCCCCCC(=O)O
21,119,CC(=O)C(=O)c1cc(C(=O)C(C)=O)c([N+](=O)[O-])cc1[N+](=O)[O-]
22,181,CC1CS(=O)(=O)CCN1N=Cc1ccc([N+](=O)[O-])o1 (centres undefined)
23,120,CCOC(=O)c1sc2nccnc2c1N

row,melting point [°C],Compound
1,300,Sc1nc2cc(Cl)ccc2[nH]1
2,-8.5,CCOc1ccc(F)cc1
3,192 to 194,CSc1nc(=O)n(C2CCCCC2)c2c1CCC2
4,178 to 182,O=C(O)c1cccc(I)c1C(=O)O
5,170,CC1OC(Oc2c(-c3ccc(O)c(O)c3)oc3cc(O)cc(O)c3c2=O)C(O)C(O)C1O (centres undefined)
6,207,COc1cc2c(cc1OC)C(=O)C(CC1CCN(Cc3ccccc3)CC1)C2 (centres undefined)
7,222,O=C(O)CNC(=O)c1ccccc1
8,186,CC(CCC(=O)O)C1CCC2C3CCC4CC(O)CCC4(C)C3CCC12C (centres undefined)
9,309 to 311,O=C(O)c1ccc(-n2ccnc2)cc1
10,-66.9,CC1CCCC(C)C1C (centres undefined)
11,70,CCCOc1ccccc1OCC(O)CO (centres undefined)
12,178,NNC(=O)c1cccc2cc[nH]c12
13,40.6,FC(F)(Cl)C(Cl)(Cl)Cl
14,105,Cc1nc2ccccc2nc1C
15,144 to 146,CC(=O)Nc1ccc(C(F)(F)F)cc1Br
16,184 to 186,CN(C)c1cccc2oc3c(cnn3-c3ccccc3)c(=O)c12
17,90,CCOc1ccc2ccc(=O)oc2c1
18,156,CC1(C)OC(=O)C(=NNc2ccc(Cl)cc2)C(=O)O1
19,155 to 158,OCc1cccc2cccc(CO)c12
20,178 to 180,CCOC(=O)c1oc(C(=O)OCC)c(O)c1O
21,79 to 80,O=C(C=Cc1ccccc1)c1ccc(F)cc1
22,134 to 138,OC(Cn1ccnc1)c1ccc(Cl)cc1Cl (centres undefined)
23,250,O=Nc1ccc2c(O)ccc(N=O)c2c1O

row,melting point [°C],Compound
1,146,COc1ccc(C(=O)c2ccccc2C(=O)O)cc1
2,238,Cc1nn(C)c2c(N)ncnc12
3,98 to 102,C1CNCCCNCCNCCCNC1
4,85 to 87,CCOC(=O)c1c(-c2cccs2)csc1N
5,108,Cc1ccc(-c2onc(C(=O)c3ccc4ccccc4c3)c2S(=O)(=O)c2ccccc2)cc1
6,256 to 258,OCC1OC(OC2C(CO)OC(O)C(O)C2O)C(O)C(O)C1O (centres undefined)
7,50,COC(=O)c1ccccc1C#N
8,-11,C1=C(c2ccccc2)CCCC1
9,228,NC(Cn1ccc(=O)c(O)c1)C(=O)O (centres undefined)
10,126 to 127,COC(=O)c1cnc(SCC(=O)c2ccc(Cl)cc2)n1C
11,87,CC(C)=C1CC(=C(C)C)C1=O
12,290,CCOC(=O)c1cnc2cc(OCC(C)C)c(OCC(C)C)cc2c1O
13,171 to 172,CCOC(=O)c1nnn2c1nc(S)c1ccccc12
14,82 to 83,Cc1ccc(C(c2ccc(C)cc2)(C(F)(F)F)C(F)(F)F)cc1
15,152,COc1cc(OC)c([N+](=O)[O-])c(OC)c1
16,86,COc1cc(C)oc(=O)c1
17,195,C=CC(=O)NC(C)(C)CS(=O)(=O)O
18,238,O=C(O)c1ccccc1C(c1ccc(O)cc1)c1ccc(O)cc1
19,146 to 148,CSc1nc2cc(NCc3ccc4c(c3)OCO4)ccc2[nH]1
20,-70,C=CC(=O)OCC(CC)CC
21,237 to 240,Clc1cc2c(cc1Cl)-c1cc(Cl)c(Cl)cc1-2
22,13,CC(CCC(=O)O)c1ccccc1 (centres undefined)
